# From patent US11214803B2, “Modulators of YAP1 expression” (Ionis Pharmaceuticals, Inc., priority 2019, dated 2022)
# Strand notation (5' to 3'): a small letter for the sugar, then the base; units joined by * are phosphorothioate-linked, units joined directly phosphodiester-linked; [ ] holds rarer units or linkages, { } end groups; capitals alone tell only the bases. k = constrained ethyl (cEt); [5mC] = 5-methylcytosine; d = 2'-deoxy (DNA)
# Assays:
# [1] = system: Yap1 mRNA; assay: Antisense inhibition of human Yap1 in A-431 cells by cEt gapmers, single dose (Example 4, RTS4814); assay type: cell-based
# Description: Modified oligonucleotides were designed to target a Yap1 nucleic acid and were tested for their effect on Yap1 mRNA level in vitro. The modified oligonucleotides were tested in a series of experiments that had similar culture conditions. Cultured A-431 cells at a density of 5,000 cells per well were treated using free uptake with 2,000 nM of modified oligonucleotide. After a treatment period of approximately 48 hours, RNA was isolated from the cells and Yap1 mRNA levels were measured by quantitative real-time RTPCR. Human primer probe set RTS4814 was used to measure mRNA levels. Yap1 mRNA levels were normalized to total RNA content, as measured by RIBOGREEN®. Results are presented in the tables below as percent control of the amount of Yap1 mRNA relative to untreated control cells (% UTC). The modified oligonucleotides with percent control values marked with an asterisk (*) target the amplicon region of the primer probe set. Additional assays may be used to measure the potency and efficacy of the modified oligonucleotides targeting the amplicon region.
# The newly designed modified oligonucleotides in the Tables below were designed as 3-10-3 cEt gapmers. The gapmers are 16 nucleosides in length, wherein the central gap segment comprises of ten 2′-deoxynucleosides and is flanked by wing segments on the 5′ direction and the 3′ direction comprising three nucleosides each. Each nucleoside in the 5′ wing segment and each nucleoside in the 3′ wing segment has a cEt sugar modification. The internucleoside linkages throughout each gapmer are phosphorothioate (P═S) linkages. All cytosine residues throughout each gapmer are 5-methylcytosines.
# “Start site” indicates the 5′-most nucleoside to which the gapmer is targeted in the human gene sequence. “Stop site” indicates the 3′-most nucleoside to which the gapmer is targeted human gene sequence. […] Activity of the modified oligonucleotide may be defined in a different experiment.
# [2] = system: Yap1 mRNA; assay: Dose-dependent inhibition of human Yap1 in A-431 cells (Example 7, 10,000 cells per well, RTS36584); assay type: cell-based; details: free uptake
# In short: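 A-431 cells at 10,000 per well received modified oligonucleotides by free uptake at several doses. After about 48 hours, Yap1 mRNA was quantified with primer-probe set RTS36584, normalized to RIBOGREEN total RNA and expressed as % untreated control. IC50 came from linear regression on a log/linear plot.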
# [3] = Yap1 mRNA remaining as percent of untreated control, 3-10-3 cEt gapmers, A-431 cells, Table 36
# [4] = Table 60, 15.6 nM, A-431 cells 10,000 cells per well, 48 hours
# [5] = Table 60, 62.5 nM, A-431 cells 10,000 cells per well, 48 hours
# [6] = Table 60, 4000.00 nM, A-431 cells 10,000 cells per well, 48 hours
# [7] = Table 60, A-431 cells 10,000 cells per well
# [8] = Table 56, 15.6 nM, A-431 cells 10,000 cells per well, 48 hours
# [9] = Table 56, 62.5 nM, A-431 cells 10,000 cells per well, 48 hours
# [10] = Table 56, 4000.00 nM, A-431 cells 10,000 cells per well, 48 hours
# [11] = Table 56, A-431 cells 10,000 cells per well
# [12] = Table 58, 15.6 nM, A-431 cells 10,000 cells per well, 48 hours
# [13] = Table 58, 62.5 nM, A-431 cells 10,000 cells per well, 48 hours
# [14] = Table 58, 4000.00 nM, A-431 cells 10,000 cells per well, 48 hours
# [15] = Table 58, A-431 cells 10,000 cells per well
substance,measurement,setting,value
1074886 (k[5mC]*kA*kG*dG*dG*d[5mC]*dT*dA*dA*d[5mC]*dT*d[5mC]*d[5mC]*kT*kG*k[5mC]; antisense) [compound 1074886],YAP1 (% UTC),"[1]; table after Table 37, headed TABLE 32 (gapmers targeting SEQ ID NO.: 3), A-431 cells, free uptake, 2,000 nM, approximately 48 hours, RTS4814",104 % UTC
1075638 (antisense kA*kT*kT*dA*dA*d[5mC]*d[5mC]*dA*dG*dA*dA*dG*d[5mC]*k[5mC]*kT*kG) [compound 1075638],YAP1 (% UTC),[1]; [3],79 % UTC
1075062 (antisense k[5mC]*kT*kT*dT*dA*dA*d[5mC]*d[5mC]*dT*dT*dA*dT*dA*k[5mC]*kT*kT) [compound 1075062],YAP1 (% UTC),[1]; [3],58 % UTC
1075959 (kG*kA*kT*dT*dA*dT*dT*dA*dT*dT*dG*d[5mC]*dA*kG*k[5mC]*kT; antisense) [compound 1075959],YAP1 (% UTC),"[1]; Yap1 mRNA remaining as percent of untreated control, 3-10-3 cEt gapmers, A-431 cells, Table 37",15 % UTC
1074403 (antisense kG*k[5mC]*kT*dT*dA*dT*dG*dG*dA*dA*dA*dT*dT*kT*k[5mC]*k[5mC]) [Compound 1074403],YAP1 (% UTC),"[1]; Table 17, A-431 cells, 5,000 cells per well, free uptake, 2,000 nM, approximately 48 hours, RTS4814, normalized to RIBOGREEN, Yap1 mRNA relative to untreated control cells",9 % UTC
1076450 (k[5mC]*kT*kT*dG*dA*dA*dT*dA*dG*d[5mC]*dT*dA*dT*kG*kT*kG; antisense) [Compound 1076450],YAP1 (% UTC),"[1]; Table 16, A-431 cells, 5,000 cells per well, free uptake, 2,000 nM, approximately 48 hours, RTS4814, normalized to RIBOGREEN, Yap1 mRNA relative to untreated control cells",13 % UTC
1076545 (antisense kA*kA*k[5mC]*d[5mC]*dA*dA*d[5mC]*d[5mC]*dT*dT*d[5mC]*d[5mC]*d[5mC]*kT*kA*k[5mC]) [Compound 1076545],YAP1 (% UTC),"[1]; Table 15, A-431 cells, 5,000 cells per well, free uptake, 2,000 nM, approximately 48 hours, RTS4814, normalized to RIBOGREEN, Yap1 mRNA relative to untreated control, * = targets amplicon region of primer probe set",68 % UTC
958523 (kT*kT*k[5mC]*d[5mC]*dA*dA*dT*d[5mC]*dG*dA*dG*dA*d[5mC]*kT*kT*kA; antisense) [compound 958523],"Yap1 mRNA, % UTC",[2]; [4],86 % UTC
same,"Yap1 mRNA, % UTC",[2]; [5],64 % UTC
same,"Yap1 mRNA, % UTC",[2]; [6],12 % UTC
same,IC50,[2]; [7],100 nM
958734 (kA*k[5mC]*kA*d[5mC]*dA*dT*dA*dG*dA*dG*d[5mC]*dT*dA*kA*kG*kG; antisense) [compound 958734],"Yap1 mRNA, % UTC","[2]; 15.6 nM, A-431 cells, 10,000 cells per well, approximately 48 hours",87 % UTC
same,"Yap1 mRNA, % UTC","[2]; 62.5 nM, A-431 cells, 10,000 cells per well, approximately 48 hours",65 % UTC
same,"Yap1 mRNA, % UTC","[2]; 4000.00 nM, A-431 cells, 10,000 cells per well, approximately 48 hours",15 % UTC
same,IC50,"[2]; A-431 cells, approximately 48 hours, linear regression on log/linear plot",100 nM
958726 (k[5mC]*kT*kG*dT*d[5mC]*dA*dG*dT*dT*dA*dT*d[5mC]*d[5mC]*kT*kA*kT; antisense) [compound 958726],"Yap1 mRNA, % UTC",[2]; [8],99 % UTC
same,"Yap1 mRNA, % UTC",[2]; [9],70 % UTC
same,"Yap1 mRNA, % UTC",[2]; [10],16 % UTC
same,IC50,[2]; [11],170 nM
958536 (kA*kG*kG*dG*dT*d[5mC]*dA*dA*dT*dT*dT*dT*d[5mC]*kA*kG*k[5mC]; antisense) [compound 958536],"Yap1 mRNA, % UTC",[2]; [8],94 % UTC
same,"Yap1 mRNA, % UTC",[2]; [9],67 % UTC
same,"Yap1 mRNA, % UTC",[2]; [10],16 % UTC
same,IC50,[2]; [11],140 nM
958793 (k[5mC]*k[5mC]*kG*d[5mC]*dA*dT*dT*dG*d[5mC]*d[5mC]*dT*dA*dA*kG*kA*kG; antisense) [compound 958793],"Yap1 mRNA, % UTC",[2]; [4],88 % UTC
same,"Yap1 mRNA, % UTC",[2]; [5],61 % UTC
same,"Yap1 mRNA, % UTC",[2]; [6],25 % UTC
same,IC50,[2]; [7],200 nM
958767 (kA*k[5mC]*kG*dA*dA*dT*dA*dA*dG*dG*d[5mC]*dA*dT*kT*kA*kG; antisense) [compound 958767],"Yap1 mRNA, % UTC","[2]; Table 59, 15.6 nM, A-431 cells 10,000 cells per well, 48 hours",101 % UTC
same,"Yap1 mRNA, % UTC","[2]; Table 59, 62.5 nM, A-431 cells 10,000 cells per well, 48 hours",57 % UTC
same,"Yap1 mRNA, % UTC","[2]; Table 59, 4000.00 nM, A-431 cells 10,000 cells per well, 48 hours",10 % UTC
same,IC50,"[2]; Table 59, A-431 cells 10,000 cells per well",100 nM
958356 (antisense kT*kT*kG*dA*dA*dG*dA*dA*dG*dG*dA*dG*dT*k[5mC]*kG*kG) [compound 958356],"Yap1 mRNA, % UTC",[2]; [8],84 % UTC
same,"Yap1 mRNA, % UTC",[2]; [9],79 % UTC
same,"Yap1 mRNA, % UTC",[2]; [10],21 % UTC
same,IC50,[2]; [11],180 nM
958727 (kA*kT*k[5mC]*dT*dG*dT*d[5mC]*dA*dG*dT*dT*dA*dT*k[5mC]*k[5mC]*kT; antisense) [compound 958727],"Yap1 mRNA, % UTC",[2]; [12],90 % UTC
same,"Yap1 mRNA, % UTC",[2]; [13],42 % UTC
same,"Yap1 mRNA, % UTC",[2]; [14],8 % UTC
same,IC50,[2]; [15],100 nM
958472 (kT*k[5mC]*k[5mC]*dT*dT*dA*dG*dA*dT*d[5mC]*d[5mC]*dT*dT*k[5mC]*kA*k[5mC]; antisense) [compound 958472],"Yap1 mRNA, % UTC",[2]; [12],92 % UTC
same,"Yap1 mRNA, % UTC",[2]; [13],63 % UTC
same,"Yap1 mRNA, % UTC",[2]; [14],23 % UTC
same,IC50,[2]; [15],200 nM
